Measurements: article PMC10949855 (Journal of veterinary pharmacology and therapeutics, 2022)
Entries after “also recorded” stand apart in the source; their conditions may differ. Read-outs that look alike come from different tables or passages of the source.

Experiments:
healthy dogs [1] = assay: Rectal temperature change from baseline; type: in vivo, dogs (Beagles); details: SC 0.4 mg/kg, n=6, P<0.05
dogs [2] = details: cited from earlier work
dogs [3] = details: cited from earlier work; remark: listed apart in the source
dogs [4] = details: SC, ref Pircio et al., 1976; cited from earlier work
[5] = after SC and IM administration at 0.25 mg/kg, dogs; ref Pfeffer et al., 1980; cited from earlier work
healthy dogs [6] = assay: Adverse effects observed after administration; details: SC 0.4 mg/kg
[7] = Pharmacokinetics of butorphanol in plasma; details: for AUC(0-inf): AUCinf
[8] = 0.4 mg/kg IV, ref Wegner et al., 2008
[9] = both, Beagle, dog, in vivo, iv, 0.4 mg/kg, IV bolus 0.4 mg/kg IV, geometric mean, n=6
[10] = both, Beagle, dog, in vivo, sc, 0.4 mg/kg
[11] = both, Beagle, dog, in vivo, sc, 0.4 mg/kg, SC 0.4 mg/kg, geometric mean, n=6

For `Oc1ccc2c(c1)[C@@]13CCCC[C@@]1(O)[C@@H](C2)N(CC1CCC1)CC3` [butorphanol], the “statistically significant decrease in rectal temperature compared to baseline” value (healthy dogs [1]) is given as “did not occur”, the “thermal antinociception compared to hydromorphone at 0.1 mg/kg IV” value (dogs [2]; [8]) is given as “equianalgesic peak effects and duration” and the “time of peak effect, thermal antinociception” value (dogs [2]; [8]) is given as 1 h. For the same molecule, the “time of peak antinociceptive effect after IV administration” value (dogs [2]; IV, ref Wegner et al 2008) was 60 min, the “antinociception, colonic distension model” value (dogs [3]; 0.4 mg/kg IV, 30 minutes (latest time point assessed), ref Houghton, et. al., 1991) was “significant effects; also recorded: significant antinociception” and the “antinociception, colonic distension model” value (dogs [3]; 0.8 mg/kg SC, 45 minutes, ref Sawyer, et. al. 1991) was “did produce a significant effect; also recorded: significant antinociception”. For the same molecule, the “response, colonic distension nociceptive model” value (dogs [3]; doses up to 0.4 mg/kg SC, 45 minutes, ref Sawyer et al., 1991) was “failed to produce a significant response”, the “dose of maximum effect on miosis” value (dogs [4]) was 0.25 mg/kg and the CMAX range [5] was 25 to 33 ng/mL. For the same molecule, the terminal half-life [5] was 1.5 to 1.7 h, the hypersalivation (healthy dogs [6]) was 2/6 and the “Css (steady state plasma concentration)” value ([7]; IV CRI: 0.2 mg/kg IV loading dose then 0.2 mg/kg/hr for 8 hours, geometric mean, n=5) was 43.1 ng/mL. The AUC extrapolated ([7]; IV bolus 0.4 mg/kg IV, geometric mean, n=6) was 1.0%, the AUC extrapolated ([7]; SC 0.4 mg/kg, geometric mean, n=6) was 2.5% and the half-life ([7]; both, Beagle, dog, in vivo, half-life, dogs, overall statement of abstract) was roughly 1.5 h. It also gave a concentration at 5 min ([7]; both, Beagle, dog, in vivo, iv, 0.4 mg/kg) of 144 ng/mL, an AUC(0-inf) [7, 9] of 143 ng·h/mL and a C0 ([7]; both, Beagle, dog, in vivo, iv, 0.4 mg/kg, C0, IV bolus 0.4 mg/kg IV, geometric mean, n=6) of 183 ng/mL. For the same molecule, the clearance ([7]; both, Beagle, dog, in vivo, iv, 0.4 mg/kg, Cl, IV bolus 0.4 mg/kg IV, geometric mean, n=6) was 46.5 mL/min/kg, the MRT [7, 9] was 1.26 h and the half-life ([7]; both, Beagle, dog, in vivo, iv, 0.4 mg/kg, T ½ λz, IV bolus 0.4 mg/kg IV, geometric mean, n=6) was 1.47 h. It also gave a Vd ([7]; both, Beagle, dog, in vivo, iv, 0.4 mg/kg, Vss, IV bolus 0.4 mg/kg IV, geometric mean, n=6) of 3.51 L/kg, a Vd ([7]; both, Beagle, dog, in vivo, iv, 0.4 mg/kg, Vz, IV bolus 0.4 mg/kg IV, geometric mean, n=6) of 5.91 L/kg and a k el ([7]; both, Beagle, dog, in vivo, iv, 0.4 mg/kg, λz, IV bolus 0.4 mg/kg IV, geometric mean, n=6) of 0.000131 s⁻¹. For the same molecule, the half-life ([7]; both, Beagle, dog, in vivo, iv, T ½ λz, IV CRI: 0.2 mg/kg IV loading dose then 0.2 mg/kg/hr for 8 hours, geometric mean, n=5) was 1.42 h, the k el ([7]; both, Beagle, dog, in vivo, iv, λz, IV CRI: 0.2 mg/kg IV loading dose then 0.2 mg/kg/hr for 8 hours, geometric mean, n=5) was 0.000136 s⁻¹ and the Cmax [7, 10] was 74.2 ng/mL. For the same molecule, the TMAX [7, 10] was 0.21 h, the AUC(0-inf) [7, 11] was 123 ng·h/mL and the MRT [7, 11] was 2.09 h. It also gave a half-life ([7]; both, Beagle, dog, in vivo, sc, 0.4 mg/kg, T ½ λz, SC 0.4 mg/kg, geometric mean, n=6) of 1.83 h and a k el ([7]; both, Beagle, dog, in vivo, sc, 0.4 mg/kg, Λz, SC 0.4 mg/kg, geometric mean, n=6) of 0.000105 s⁻¹.
